Measured values from patent US11065343B2, “Compound bearing beta-galactoside-introduced self-immolative linker” (IntoCell Inc., priority 2016, dated 2021).
Like-named read-outs stand apart in the source and are kept apart here. *1 amine or outer side, *2 acyl side, *3 side chain or, on linkers, in order; H or OH if unused. Where a SMILES comes first, the peptide text is derived from it. [ ]: non-standard residue; d: D form. ξ: configuration not given here. Dil(5ξ) = CCC(C)[C@@H]([C@@H](CC(=O)[*:2])OC)N(C)[*:1]; Dolaproine = CO[C@@H]([C@@H]1CCCN1)[C@@H](C)C(=O)O; NMeV = CN[C@H](C(=O)O)C(C)C; ξF = NC(Cc1ccccc1)C(=O)O

Experiments:
KB cancer cell line = assay: In vitro cytotoxicity of ligand-drug conjugates (MTT); format: cell-based, human; details: for IC50: read-out: Cell cytotoxicity IC50
Experimental: KB cancer cell line was seeded 30,000 cells per well of a 96-well plate, and after the culture for 24 hours, the drug MMAF-OMe was treated with a concentration of 0.0097˜10 nM (4-fold serial dilution), ligand-drug conjugate (B) prepared in Comparative Example 2 and ligand-drug conjugate (1) prepared in Example 2 were treated with a concentration of 0.0244-100 nM (4-fold serial dilution). The number of live cell after 72 hours was quantified by using 3-(4,5-dimethylthiazol-2-yl)-2,5-diphenyltetrazolium bromide (MTT) dye as chromogenic reagent. And then formazan reduced by oxidoreductase present in live cells were dissolved in DMSO, and quantified. […] Therefore, in the case of compound (1) to which galactoside linker is introduced, it could be confirmed that it has better efficacy compared with compound (B) to which glucuronide linker is introduced.

folate receptor = target: T1, folate receptor (Homo sapiens, UniProt P15328); assay: Binding affinity of ligand-drug conjugate to folic acid receptor (competition with FA-Cy5 tracer, polarized light)
T1 construct: Soluble plasma membrane from KB human cancer cells were isolated; endogenous in cells; host or cells: KB human cancer cells (plasma membrane protein extract, Abcam kit ab65400)
Experimental: Soluble plasma membrane from KB human cancer cells were isolated using plasma membrane protein extraction kit (ab65400) (Abcam company). […] After the preincubation for 15 minutes, FA-Cy5 tracer prepared in Preparation Example 10 was treated with a concentration of 1 nM, and after the reaction for 2 hours at 37° C., synergy2 microplate reader (BioTek company) (ex/em=635/688 nm) was used to measure polarized light.

[1] = target: T2, Beta-galactosidase enzyme (Sigma G4155) in E. coli (Escherichia coli, UniProt P00722); assay: in vitro; format: biochemical; details: (1) with beta-galactosidase versus (B) with beta-glucuronidase
T2 construct: purchased Sigma G4155
Experimental: (§1) In order to identify the reactivity of ligand-drug conjugate (1) of Example 2 to β-galactosidase, the difference of the reactivity to R-glucuronidase between it and ligand-drug conjugate (B) of Comparative Example 2 as a comparative material was compared.
(§2) Ligand-drug conjugate (1) of Example 2 and ligand-drug conjugate (B) of Comparative Example 2 were respectively dissolved in DMSO to a concentration of 9 mM, and then each of them was mixed with PBS buffer solution to prepare 500 μM of solution.
(§3) An enzyme reaction solution for ligand-drug conjugate (1) of Example 2 was prepared by adding 1 mg/mL enzyme solution (10 μL) to the mixed solution comprising PBS buffer solution (440 μL) and 500 μM ligand-drug conjugate (1) solution (50 μL) of Example 2, then the reaction was initiated in 37° C. of the incubator.
(§4) Beta-galactosidase enzyme (Sigma G4155) in E. coli was used for the reaction mixture comprising ligand-drug conjugate (1) of Example 2 and beta-glucuronidase enzyme (Sigma G7396) in E. coli was used for the reaction mixture comprising ligand-drug conjugate (B) of Comparative Example 2 for the comparison experiment.
(§5) That is, in the case of compound (1) to which galactoside linker is introduced, it could be confirmed that it has more rapid hydrolysis rate 6 times or more, relative to comparison compound (B) to which glucuronide linker is introduced.

beta-galactosidase = target: T3, beta-galactosidase (Escherichia coli, UniProt P00722); assay: in vitro; format: biochemical, E. coli; details: Escherichia coli; beta-galactosidase, PBS buffer, 37° C., HPLC; read-out: hydrolysis half-life by enzyme
T3 construct: purchased Sigma G4155
Experimental: as §1, §2, §3, §4, §5

T1 sequence (P15328 25-234): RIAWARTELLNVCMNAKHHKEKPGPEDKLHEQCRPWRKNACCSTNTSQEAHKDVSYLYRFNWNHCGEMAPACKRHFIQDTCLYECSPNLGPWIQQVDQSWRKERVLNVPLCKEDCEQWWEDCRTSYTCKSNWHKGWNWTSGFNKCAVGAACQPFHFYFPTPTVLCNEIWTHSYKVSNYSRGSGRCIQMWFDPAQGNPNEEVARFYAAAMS
T3 sequence (P00722 2-1024): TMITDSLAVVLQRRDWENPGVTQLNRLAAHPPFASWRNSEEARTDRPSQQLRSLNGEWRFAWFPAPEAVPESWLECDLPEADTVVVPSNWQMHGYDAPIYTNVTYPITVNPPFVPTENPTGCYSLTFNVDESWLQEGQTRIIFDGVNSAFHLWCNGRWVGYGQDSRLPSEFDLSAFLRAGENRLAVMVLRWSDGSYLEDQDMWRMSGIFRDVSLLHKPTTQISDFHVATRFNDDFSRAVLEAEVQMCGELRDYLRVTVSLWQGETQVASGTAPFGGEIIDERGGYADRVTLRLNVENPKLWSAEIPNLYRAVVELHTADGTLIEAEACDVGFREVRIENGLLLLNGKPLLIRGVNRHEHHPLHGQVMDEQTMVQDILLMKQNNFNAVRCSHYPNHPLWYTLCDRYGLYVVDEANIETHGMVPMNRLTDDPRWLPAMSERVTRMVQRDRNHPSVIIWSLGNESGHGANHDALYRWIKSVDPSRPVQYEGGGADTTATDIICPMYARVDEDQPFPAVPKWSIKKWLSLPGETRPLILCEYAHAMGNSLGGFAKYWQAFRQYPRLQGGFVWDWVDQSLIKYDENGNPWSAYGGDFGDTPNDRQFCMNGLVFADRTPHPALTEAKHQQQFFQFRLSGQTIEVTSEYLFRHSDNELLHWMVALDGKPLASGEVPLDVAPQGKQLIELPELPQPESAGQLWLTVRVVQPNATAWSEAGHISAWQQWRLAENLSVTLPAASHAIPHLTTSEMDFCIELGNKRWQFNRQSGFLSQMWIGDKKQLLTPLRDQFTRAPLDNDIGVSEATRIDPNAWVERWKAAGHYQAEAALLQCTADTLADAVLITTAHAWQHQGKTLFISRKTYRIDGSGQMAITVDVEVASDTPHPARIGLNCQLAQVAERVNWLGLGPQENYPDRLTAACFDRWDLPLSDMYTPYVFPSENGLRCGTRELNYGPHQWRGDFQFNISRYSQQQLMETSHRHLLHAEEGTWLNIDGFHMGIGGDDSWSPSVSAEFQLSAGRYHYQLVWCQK
T2 sequence (P00722 2-1024): as above

| Compound | IC50 (KB cancer cell line; Homo sapiens, KB, 72 h) [nM] | IC50 (folate receptor) [nM] | binding affinity (IC50) better than (B) (folate receptor; relative to ligand-drug conjugate (B)) [fold] | IC50 (KB cancer cell line; KB cell, 72 hours, MTT) [nM] | cytotoxicity better than conjugate (B) (KB cancer cell line; KB cell, relative to conjugate (B)) | more rapid hydrolysis rate relative to comparison compound (B) [1] [times] | half-life at 50 µM (beta-galactosidase) [min] |
| --- | --- | --- | --- | --- | --- | --- | --- |
| CCC(C)[C@@H]([C@@H](CC(=O)N1CCC[C@H]1[C@H](OC)[C@@H](C)C(=O)NC(Cc1ccccc1)C(=O)OC)OC)N(C)C(=O)[C@@H](NC(=O)[C@@H](NC)C(C)C)C(C)C (stereo partly shown) [MMAF-OMe, reference compound] (H-[NMeV]V[Dil(5ξ)][Dolaproine][ξF]-OMe) | 0.38 ± 0.17 |  |  |  |  |  |  |
| CCC(C)[C@@H]([C@@H](CC(=O)N1CCC[C@H]1[C@H](OC)[C@@H](C)C(=O)N[C@@H](Cc1ccccc1)C(=O)O)OC)N(C)C(=O)[C@@H](NC(=O)[C@H](C(C)C)N(C)C(=O)OCc1ccc(O[C@@H]2O[C@H](CO)[C@H](O)[C@H](O)[C@H]2O)c(C(=O)NCCOCCOCCOCc2cn(CCC(=O)N[C@@H](CCCCN)C(=O)NCCOCCOCCNC(=O)CC[C@H](NC(=O)c3ccc(NCc4cnc5nc(N)[nH]c(=O)c5n4)cc3)C(=O)O)nn2)c1)C(C)C (stereo partly shown) [ligand-drug conjugate (1)] |  | 17.5 | 2.5 | 0.44 ± 0.12 | about twofold | ≥ 6 | 34.7 |
